Like-named read-outs stand apart in the source and are kept apart here.
Key:
[1] = biological target: T1, Human Dopamine D2L receptor (Homo sapiens, UniProt P14416); assay: Binding experiment for dopamine D2 receptor ([3H]Spiperone); details: D2L-transfected CHO cell membranes; for IC50: read-out: pIC50 D2 (converted)
T1 construct: expressed in transfected cells; host or cells: CHO cells
Description: (§1) The interaction of the compounds of Formula (I) with dopamine-receptors, h5HT-transporter and h5HT1A receptor was assessed in in vitro radioligand binding experiments. In general, a low concentration of a radioligand with a high binding affinity for a particular receptor or transporter is incubated with a sample of a tissue preparation enriched in a particular receptor or transporter or with a preparation of cells expressing cloned human receptors in a buffered medium. During the incubation, the radioligand binds to the receptor or transporter. When equilibrium of binding is reached, the receptor bound radioactivity is separated from the non-bound radioactivity, and the receptor- or transporter-bound activity is counted. The interaction of the test compounds with the receptor is assessed in competition binding experiments. Various concentrations of the test compound are added to the incubation mixture containing the receptor- or transporter preparation and the radioligand. The test compound in proportion to its binding affinity and its concentration inhibits binding of the radioligand.
Human Dopamine D2L receptor-transfected CHO cells were collected by scraping into ice-cold Tris-HCl buffer (50 mM, pH 7.4). The suspension was centrifuged (23 500×g, 10 min, 4° C.) and pellets stored at −70° C. until required. They were then thawed and briefly homogenised using an Ultra-Turrax T25 homogeniser prior to dilution to an appropriate protein concentration optimised for specific and non-specific binding. [^3H]Spiperone (NEN, specific activity ˜70 Ci/mmol) was diluted in Tris-HCl assay buffer containing NaCl, CaCl2, MgCl2, KCl (50, 120, 2, 1, and 5 mM respectively, adjusted to pH 7.7 with HCl) at a concentration of 2 nmol/L. Prepared radioligand (50 μl) was then incubated (30 min, 37° C.) with membrane preparations pre-diluted to an appropriate protein concentration (400 μl), and with 50 μl of either the 10% DMSO control, Butaclamol (10^−6 mol/L final concentration), or compound of interest. Membrane-bound activity was detected by filtration through a Packard Filtermate harvester onto Unifilterplates, washing with ice-cold Tris-HCl buffer (50 mM; pH8.0; 3×4 ml). Filters were allowed to dry before adding scintillation fluid and counting in a Topcount scintillation counter. % Specific bound and competition binding curves were calculated using S-Plus software (Insightful).

[2] = biological target: T2, Human 5HT1A receptor (Homo sapiens, UniProt P08908); assay: Binding experiment for 5-HT1A receptor ([3H]8OHDPAT)
T2 construct: expressed in transfected cells; host or cells: L929 cells (stably transfected)
T2 sequence (P08908 1-422): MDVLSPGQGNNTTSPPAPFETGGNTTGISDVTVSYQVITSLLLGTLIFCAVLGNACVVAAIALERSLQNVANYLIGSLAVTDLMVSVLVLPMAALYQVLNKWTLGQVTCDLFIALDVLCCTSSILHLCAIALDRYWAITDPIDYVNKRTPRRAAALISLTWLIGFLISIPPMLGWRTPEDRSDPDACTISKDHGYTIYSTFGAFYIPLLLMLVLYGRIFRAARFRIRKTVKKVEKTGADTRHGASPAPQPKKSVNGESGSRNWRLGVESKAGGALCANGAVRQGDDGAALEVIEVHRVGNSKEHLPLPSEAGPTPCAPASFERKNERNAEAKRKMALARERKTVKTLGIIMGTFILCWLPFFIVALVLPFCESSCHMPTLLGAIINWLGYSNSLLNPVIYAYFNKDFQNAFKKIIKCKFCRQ
Description: as §1
Human 5HT1A receptor-transfected L929 cells were collected by scraping into ice-cold Tris-HCl buffer (50 mM, pH 7.4). The suspension was centrifuged (23 500×g, 10 min, 4° C.) and pellets stored at −70° C. until required. They were then thawed and briefly homogenised using an Ultra-Turrax T25 homogeniser prior to dilution to an appropriate protein concentration optimised for specific and non-specific binding. [^3H]80HDPAT (NEN, specific activity 127 Ci/mmol) was diluted in Tris-HCl assay buffer containing CaCl2 (50 mM and 4 mM, respectively; pH 7.7) at a concentration of 5 nmol/L. Prepared radioligand (50 μl) was then incubated (30 min, 37° C.) with membrane preparations from L929 cells stably-transfected with the h5HT1A gene construct (400 μl) and with 50 μl of either the 10% DMSO control, spiroxatrine (10^−6 mol/L final concentration), or compound of interest. Membrane-bound activity was detected by filtration through a Packard Filtermate harvester onto Unifilterplates, washing with ice-cold Tris-HCl buffer (3×4 ml), followed by drying. Scintillation fluid was added and membranes were counted in a Topcount scintillation counter. % Specific bound and competition binding curves were calculated using S-Plus software (Insightful).

[3] = biological target: T3, human 5HT transporter (Homo sapiens, UniProt P31645); assay: Binding experiment for 5-HT transporter ([3H]Paroxetine)
T3 construct: host or cells: HEK cells
Description: as §1
Frozen human 5HT transporter-transfected HEK cells (Perkin Elmer, Brussels) were thawed and briefly homogenised using an Ultra-Turrax T25 homogeniser prior to dilution to an appropriate protein concentration optimised for specific and non-specific binding. [^3H]Paroxetine (NEN, specific activity 20 Ci/mmol) was diluted in Tris-HCl assay buffer containing NaCl and KCl (50 mM, 120 mM and 5 mM, respectively; pH 7.4) at a concentration of 5 nmol/L. Prepared radioligand (25 μl) was then incubated (60 min, 25° C.) with membrane preparations (200 μl) and with 25 μl of either 10% DMSO control, Inipramine (10^−6 mol/L final concentration), or compound of interest. Membrane-bound activity was detected by filtration through a Packard Filtermate harvester onto Unifilterplates pre-soaked in 0.1% PEI, washing with ice-cold assay buffer (3×4 ml). Filters were dried prior to addition of scintillation fluid and then counting in a Topcount scintillation counter. % Specific bound and competition binding curves were calculated using S-Plus software (Insightful).

[4] = transfected L929 cell membranes, [3H]8OHDPAT
[5] = transfected HEK cell membranes, [3H]Paroxetine
[6] = transfected L929 cell membranes, [3H]8OHDPAT, read-out: pIC50 5-HT1A (converted)
[7] = transfected HEK cell membranes, [3H]Paroxetine, read-out: pIC50 5HTT (converted)

T3 sequence (P31645 whole entry): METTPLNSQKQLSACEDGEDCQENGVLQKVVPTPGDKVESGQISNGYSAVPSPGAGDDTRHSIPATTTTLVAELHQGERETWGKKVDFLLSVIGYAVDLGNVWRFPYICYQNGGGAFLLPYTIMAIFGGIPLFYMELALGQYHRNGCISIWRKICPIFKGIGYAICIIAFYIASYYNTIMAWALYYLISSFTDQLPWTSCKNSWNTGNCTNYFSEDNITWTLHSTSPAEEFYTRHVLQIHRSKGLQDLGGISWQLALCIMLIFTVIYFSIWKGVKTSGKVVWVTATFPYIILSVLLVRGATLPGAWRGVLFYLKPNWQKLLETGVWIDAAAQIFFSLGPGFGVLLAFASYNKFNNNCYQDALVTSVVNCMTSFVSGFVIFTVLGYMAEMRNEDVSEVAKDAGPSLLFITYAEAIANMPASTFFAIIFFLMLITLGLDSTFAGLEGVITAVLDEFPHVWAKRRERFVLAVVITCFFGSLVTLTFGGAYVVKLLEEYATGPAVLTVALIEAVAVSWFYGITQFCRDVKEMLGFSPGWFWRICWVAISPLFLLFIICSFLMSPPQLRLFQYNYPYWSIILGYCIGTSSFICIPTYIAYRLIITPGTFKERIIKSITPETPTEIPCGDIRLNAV
T1 sequence (P14416 whole entry): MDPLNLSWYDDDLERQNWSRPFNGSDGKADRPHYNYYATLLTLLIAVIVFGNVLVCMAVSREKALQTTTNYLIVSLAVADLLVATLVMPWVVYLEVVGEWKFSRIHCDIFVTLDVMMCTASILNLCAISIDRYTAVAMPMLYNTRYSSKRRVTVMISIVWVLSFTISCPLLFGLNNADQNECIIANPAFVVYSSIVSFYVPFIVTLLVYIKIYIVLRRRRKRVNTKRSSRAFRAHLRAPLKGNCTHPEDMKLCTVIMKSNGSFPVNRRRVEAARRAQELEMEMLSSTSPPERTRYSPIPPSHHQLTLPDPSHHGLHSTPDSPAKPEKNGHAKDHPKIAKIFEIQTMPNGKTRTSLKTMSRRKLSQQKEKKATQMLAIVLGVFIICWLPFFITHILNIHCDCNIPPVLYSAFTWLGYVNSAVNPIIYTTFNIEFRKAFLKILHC

Row | SMILES | pIC50 D2 [1] | pIC50 5-HT1A [2, 4] | pIC50 5HTT [3, 5] | IC50 [1] [nM] | IC50 [3, 7] [nM] | further results
1 | Fc1ccc2c(C3CCN(CC4ON=C5c6ccc(N7CCOCC7)cc6OCC54)CC3)c[nH]c2c1 (racemic) [Compound 52] | 7.5 | 7.5 | 7.4 |  |  | 
2 | COc1cc2c(cc1OC)C1=NOC(CN3CC=C(c4c[nH]c5ccc(NC(=O)Nc6ccccc6)cc45)CC3)C1CO2 (racemic) [Compound 38] | <5 | 8.4 | <5 |  |  | 
3 | Fc1ccc2c(C3CCN(CC4ON=C5c6ccc(NCCN7CCCC7)cc6OCC54)CC3)c[nH]c2c1 (racemic) [Compound 51] | 7.9 | 7.7 | 8.2 |  |  | 
4 | COCC(=O)OCCOc1cc2c(cc1OC)C1=NOC(CN3CCC(c4c[nH]c5ccc(F)cc45)CC3)C1CO2 (racemic) [Compound 49] | 6.7 |  | 6.9 |  |  | 
5 | COc1ccc2[nH]cc(C3CCN(CC4ON=C5c6cc(OC)c(OC)cc6OCC54)CC3)c2c1 (racemic) [Compound 8] |  |  |  | > 1000 | 1260 | IC50 [2, 6]: 7.94 nM
6 | COCC(=O)Nc1ccc2[nH]cc(C3=CCN(CC4ON=C5c6cc(OC)c(OC)cc6OCC54)CC3)c2c1 (racemic) [Compound 41] | <5 | 8.3 | <5 |  |  | 
7 | COCCOCOc1ccc2[nH]cc(C3=CCN(CC4ON=C5c6cc(OC)c(OC)cc6OCC54)CC3)c2c1 (stereo not drawn) [Compound 62] |  |  |  | > 10000 | > 10000 | IC50 [2, 6]: 63.1 nM
8 | COc1cc2c(cc1OC)C1=NOC(CN3CCC(c4c[nH]c5cc(F)ccc45)CC3)C1CO2 (single isomer, unassigned) [Compound 35] | 6.9 | 6.4 | 7.3 |  |  | 
9 | Nc1ccc2c(c1)OCC1C2=NOC1CN1CC=C(c2c[nH]c3ccc(F)cc23)CC1 (racemic) [Compound 61] |  | 7.3 | 6.9 |  |  | 
10 | COc1cc2c(cc1OC)C1=NOC(CN3CCC(c4c[nH]c5cc(F)ccc45)CC3)C1CO2 (single isomer, unassigned) [Compound 36] | 7.5 | 8.0 | 6.8 |  |  | 
11 | COc1cc2c(cc1OC)C1=NOC(CN3CCC(c4c[nH]c5ccc(O)cc45)CC3)C1CO2 (racemic) [Compound 54] |  |  |  | 398 | 63.1 | 
12 | COc1cc2c(cc1OC)C1=NOC(CN3CCC(Cc4c[nH]c5ccc(F)cc45)CC3)C1CO2 (racemic) [Compound 57] | 6.3 | 6.4 | 8.3 |  |  | 
13 | COc1cc2c(cc1OCCOC(C)=O)OCC1C2=NOC1CN1CCC(c2c[nH]c3ccc(F)cc23)CC1 (racemic) [Compound 48] |  |  |  | 158 | 79.4 | IC50 [2, 6]: 1.58 nM
14 | COc1cc2c(cc1OC)C1=NOC(CN3CC=C(c4c[nH]c5ccc(NS(C)(=O)=O)cc45)CC3)C1CO2.O=C(O)C(F)(F)F (racemic) [Compound 43] | 6.0 | 8.7 | <5 |  |  | 
15 | COc1cc2c(cc1OC)C1=NOC(CN3CC=C(c4c[nH]c5ccc(NC(C)=O)cc45)CC3)C1CO2 (racemic) [Compound 40] |  |  |  | > 10000 | > 10000 | IC50 [2, 6]: 3.16 nM
16 | COc1cc2c(cc1OC)C1=NOC(CN3CCC(c4c[nH]c5ccccc45)CC3)C1CO2.O=C(O)C(=O)O (single isomer, unassigned) [Compound 45] | 6.3 | 7.0 | 6.9 |  |  | 
17 | Fc1ccc2[nH]cc(C3=CCN(CC4ON=C5c6ccc(NCCN7CCCC7)cc6OCC54)CC3)c2c1 (racemic) [Compound 56] | 6.8 | 8.1 | 8.1 |  |  | 
18 | CCNC(=O)OCCOc1cc2c(cc1OC)C1=NOC(CN3CCC(c4c[nH]c5ccc(F)cc45)CC3)C1CO2 (racemic) [Compound 50] | 6.8 | 8.6 | 6.9 |  |  | 
19 | CCOC(=O)C(=O)Nc1ccc2[nH]cc(C3=CCN(CC4ON=C5c6cc(OC)c(OC)cc6OCC54)CC3)c2c1 (racemic) [Compound 42] | <5 | 8.2 | <5.5 |  |  | 
20 | COc1cc2c(cc1OC)C1=NOC(CN3CCC(c4c[nH]c5ccc(Br)cc45)CC3)C1CO2 (racemic) [Compound 53] | 6.7 |  | 6.4 |  |  | 
21 | CCNC(=O)Nc1ccc2[nH]cc(C3=CCN(CC4ON=C5c6cc(OC)c(OC)cc6OCC54)CC3)c2c1 (racemic) [Compound 37] |  |  |  | > 10000 | > 10000 | IC50 [2, 6]: 7.94 nM
22 | COc1cc2c(cc1OC)C1=NO[C@@H](CN3CC=C(c4cn(C)c5ccccc45)CC3)[C@@H]1CO2 (single isomer, unassigned) [Compound 34] |  |  |  | 2000 |  | IC50 [2]: 20 nM; IC50 [3]: 63.1 nM
23 | CC(=O)Nc1ccc2c(c1)OCC1C2=NOC1CN1CCC(c2c[nH]c3ccc(F)cc23)CC1 (stereo not drawn) [Compound 46] |  |  |  | 316 | 50.1 | 
24 | COc1cc2c(cc1OC)C1=NOC(CN3CC=C(c4c[nH]c5ccc(N)cc45)CC3)C1CO2 (stereo not drawn) [Compound 33] |  |  |  | 1260 | 631 | IC50 [2, 6]: 12.6 nM
25 | COCCOCOc1cc2c(cc1OC)C1=NOC(CN3CC=C(c4c[nH]c5ccc(F)cc45)CC3)C1CO2 (racemic) [Compound 63] | 7.9 | 6.0 | 7.6 |  |  | 
26 | COc1cc2c(cc1OC)C1=NOC(CN3CCC(c4coc5cc(F)ccc45)CC3)C1CO2 (stereo not drawn) [Compound 59] |  |  |  | 100 | 79.4 | IC50 [2, 6]: 15.8 nM
27 | COc1cc2c(cc1OCCO)OCC1C2=NOC1CN1CCC(c2c[nH]c3ccc(F)cc23)CC1 (racemic) [Compound 47] |  |  |  | 100 | 398 | 
28 | COc1cc2c(cc1OC)C1=NO[C@@H](CN3CCC(n4ccc5ccccc54)CC3)[C@@H]1CO2 (racemic) [Compound 58] |  |  |  | 501 | 631 | IC50 [2]: 25.1 nM
29 | CCOC(=O)CNC(=O)Nc1ccc2[nH]cc(C3=CCN(CC4ON=C5c6cc(OC)c(OC)cc6OCC54)CC3)c2c1 (racemic) [Compound 39] | <5 | 7.8 | <5 |  |  | 
